Results taken from patent US20150218654A1, “METHODS FOR PREDICTING MULTIPLE MYELOMA TREATMENT RESPONSE” (INSERM (INSTITUT NATIONAL DE LA SANTÉ ET DE LA RE- CHERCHE …, priority 2012, published 2015).
“And” between values parts separate entries of the source, which are not always exact repeats. Equal entries are not always repeated. Where two headings read alike, the source gives them in different places.

What was measured:
[1] = test system: human myeloma cell lines (HMCLs); assay: Growth assay for myeloma cells (Cell Titer Glo, 4 days, graded DNMTi concentrations); type: cell-based; details: for IC50: Homo sapiens, 96 h, 4 days
Method: HMCLs were cultured for 4 days in 96-well flat-bottom microtiter plates in RPMI 1640 medium, 10% FCS, 2 ng/ml IL-6 culture medium (control), with graded decitabine concentrations. Data are mean values plus or minus standard deviation (SD) of 5 experiments determined on sextuplet culture wells.
HMCLs were cultured for 4 days in 96-well flat-bottom microtiter plates in RPMI 1640 medium, 10% FCS, 2 ng/ml IL-6 culture medium (control), and graded 5-azacitidine concentrations. Data are mean values plus or minus standard deviation (SD) of 5 experiments determined on sextuplet culture wells.
HMCLs were cultured for 4 days in 96-well flat-bottom microtiter plates in RPMI 1640 medium, 10% FCS, 2 ng/ml IL-6 culture medium (control), with graded decitabine concentrations. Cell growth was evaluated by quantifying intracellular ATP amount with a Cell Titer Glo Luminescent Assay (Promega, Madison, Wis.) with a Centro LB 960 luminometer (Berthold Technologies, Bad Wildbad, Germany).
The inventors sought to determine whether DM Score could predict for the sensitivity of 10 HMCLs to DNMT inhibitor. Starting from a large cohort of 40 HMCLs (22), the 10 HMCLs with the highest or lowest DM Score were selected to assay decitabine sensitivity.
HMCLs were cultured with graded 5-azacitidine (Sigma, St. Louis, Mo.) concentrations. HMCLs cell growth was quantified with a Cell Titer Glo Luminescent Assay (Promega, Madison, Wis.) and half inhibitory concentration (IC50) was determined using GraphPad Prism (http://www.graphpad.com/scientific-software/prism/).

[2] = test system: primary myeloma cells of patients (CD138+ viable plasma cells); assay: Mononuclear cell culture of patients' tumor samples, count of viable CD138+ myeloma cells by flow cytometry; type: cell-based, human
Method: Mononuclear cells from tumor samples of 12 patients with MM were cultured for 4 days in the presence of IL-6 (2 ng/ml) with or without graded decitabine concentrations. At day 4 of culture, the cell count and the viability were determined and the percentage of CD138^+ viable plasma cells was determined by flow cytometry. Black color represents patients with high DM Score (N=6) and white represents patients with low DM Score values (N=6).
Mononuclear cells from tumor samples of 14 patients with MM were cultured for 4 days in the presence of IL-6 (2 ng/ml) with or without graded 5-azacitidine concentrations. At day 4 of culture, the count of viable CD138′ MMCs was determined using flow cytometry. The black columns represent the mean±SD of primary myeloma cell counts (expressed as the percentage of the count without adding 5-azcytidine) of the 7 patients with a low DM Score and the white columns that of the 7 patients with a high DM Score.
Mononuclear cells from tumor samples of 12 patients with MM (agreement of the Center for Biological Resources of Montpellier University Hospital (N° DC-2008-417)) were cultured for 4 days at 2×10^5 cells/ml in RPMI 1640 medium, 10% FCS, 2 ng/ml IL-6, with or without graded concentrations of decitabine. In each culture group, viability and cell counts were assayed and MMCs were stained with an anti-CD138-PE mAb (Immunotech, Marseille, France) as previously described (32).
Primary myeloma cells of 14 patients were cultured with or without graded concentrations of 5-azacitidine and MMC cytotoxicity evaluated using anti-CD138-PE mAb (Immunotech, Marseille, France) as described (Jourdan, et al 1998; Mahtouk, et al 2004; Moreaux, et al 2012).

## Nc1ncn([C@H]2C[C@H](O)[C@@H](CO)O2)c(=O)n1 [decitabine, 5-Aza-2′-deoxycytidine]
[1]; HMCLs with highest DM Score versus low DM Score, P=0.01
  fold higher decitabine sensitivity: 11 fold
[1]; decitabine, 5 HMCLs with low DM Score, read-out: IC50 range
  IC50: 2920 to 60800 nM
[1]; read-out: IC50 range, decitabine, 5 HMCLs with the highest DM Score
  IC50: 150 to 2220 nM
[1]; read-out: median IC50, decitabine, 5 HMCLs with low DM Score
  IC50: 7940 nM
[1]; read-out: median IC50, decitabine, 5 HMCLs with the highest DM Score
  IC50: 680 nM
[1]; XG6, XG20, XG13, SKMM2, LP1 (lowest DM Score)
  sensitivity class of HMCLs: Resistant
[1]; XG12, XG16, XG19, JJN3, RPMI8226 (highest DM Score)
  sensitivity class of HMCLs: Sensitive
[2]; 0.125 μM decitabine, day 4, mean of 6 patients with high DM Score
  Myeloma cell number/culture well, Mean: 54391
[2]; 0.125 μM decitabine, day 4, mean of 6 patients with low DM Score
  Myeloma cell number/culture well, Mean: 43748
[2]; 0.125 μM decitabine, day 4, single patients with high DM Score
  Myeloma cell number/culture well: 43320 and 49096 and 40432 and 63536 and 69312 and 60648
[2]; 0.125 μM decitabine, day 4, single patients with low DM Score
  Myeloma cell number/culture well: 26100 and 51984 and 77976 and 54336 and 1066 and 51024
[2]; 0.5 μM decitabine, day 4, mean of 6 patients with high DM Score
  Myeloma cell number/culture well, Mean: 38622
[2]; 0.5 μM decitabine, day 4, mean of 6 patients with low DM Score
  Myeloma cell number/culture well, Mean: 38834
[2]; 0.5 μM decitabine, day 4, single patients with high DM Score
  Myeloma cell number/culture well: 36738 (2×) and 31086 and 28260 and 56520 and 42390
[2]; 0.5 μM decitabine, day 4, single patients with low DM Score
  Myeloma cell number/culture well: 27195 and 45216 and 53694 and 51300 and 870 and 54726
[2]; 2 μM decitabine, day 4, mean of 6 patients with high DM Score
  Myeloma cell number/culture well, Mean: 24024
[2]; 2 μM decitabine, day 4, mean of 6 patients with low DM Score
  Myeloma cell number/culture well, Mean: 30672
[2]; 2 μM decitabine, day 4, single patients with high DM Score
  Myeloma cell number/culture well: 20592 (2×) and 22880 and 18304 and 29744 and 32032
[2]; 2 μM decitabine, day 4, single patients with low DM Score
  Myeloma cell number/culture well: 21028 and 32032 and 22880 and 51230 and 1044 and 55818
[2]; 8 μM decitabine, day 4, mean of 6 patients with high DM Score
  Myeloma cell number/culture well, Mean: 12808
[2]; 8 μM decitabine, day 4, mean of 6 patients with low DM Score
  Myeloma cell number/culture well, Mean: 26080
[2]; 8 μM decitabine, day 4, single patients with high DM Score
  Myeloma cell number/culture well: 5800 and 11600 and 10150 and 18850 and 17400 and 13050
[2]; 8 μM decitabine, day 4, single patients with low DM Score
  Myeloma cell number/culture well: 18265 and 21750 and 14500 and 53486 and 1039 and 47440
[2]; primary MMCs with DM Score above median (−19.7) versus below median, P<0.01
  fold higher decitabine sensitivity: 2.2 fold
